Results published in PubChem BioAssay AID1745844 (Carcinogenic Potency Database (CPDB), 2022).
Activity calls are given as the source filed them. The rule behind the calls is not given here.

Tested on: rodent lifetime carcinogenesis bioassay, tumor incidence TD50
Test: carcinogenic potency in animals, long-term in vivo studies, CPDB compilation (AID 1745844)

Compound: O[C@@H]([C@H](O)[C@H](O)CBr)[C@H](O)CBr
- TD50 (mouse, strain Swiss, females, i.p., site: adrenal gland, lesion: cortical adenoma, dosed 26 weeks, study length 78 weeks): 136 mg/kg/day
- TD50 (mouse, strain Swiss, females, i.p., site: all sites, lesion: lymphatic leukemia, dosed 26 weeks, study length 78 weeks): 89.8 mg/kg/day
- TD50 (mouse, strain Swiss, females, i.p., site: all sites, lesion: lymphosarcoma, dosed 26 weeks, study length 78 weeks): 38.4 mg/kg/day
- TD50 (mouse, strain Swiss, females, i.p., site: any site (literature study), lesion: benign tumor, dosed 26 weeks, study length 78 weeks): 130 mg/kg/day
- TD50 (mouse, strain Swiss, females, i.p., site: any site (literature study), lesion: malignant tumor, dosed 26 weeks, study length 78 weeks): 11.2 mg/kg/day
- TD50 (mouse, strain Swiss, females, i.p., site: any site (literature study), lesion: several types, types named in the paper, dosed 26 weeks, study length 78 weeks): 7.67 mg/kg/day
- TD50 (mouse, strain Swiss, females, i.p., site: lung, lesion: several types, types named in the paper, dosed 26 weeks, study length 78 weeks): 21.4 mg/kg/day
- TD50 (mouse, strain Swiss, females, i.p., site: subcutaneous tissue, lesion: carcinoma, dosed 26 weeks, study length 78 weeks): 66 mg/kg/day
- TD50 (mouse, strain Swiss, males, i.p., site: any site (literature study), lesion: benign tumor, dosed 26 weeks, study length 78 weeks): 92.8 mg/kg/day
- TD50 (mouse, strain Swiss, males, i.p., site: any site (literature study), lesion: malignant tumor, dosed 26 weeks, study length 78 weeks): 8.53 mg/kg/day
- TD50 (mouse, strain Swiss, males, i.p., site: any site (literature study), lesion: several types, types named in the paper, dosed 26 weeks, study length 78 weeks): 6.03 mg/kg/day
- TD50 (mouse, strain Swiss, males, i.p., site: liver, lesion: several types, types named in the paper, dosed 26 weeks, study length 78 weeks): 65.7 mg/kg/day
- TD50 (mouse, strain Swiss, males, i.p., site: lung, lesion: several types, types named in the paper, dosed 26 weeks, study length 78 weeks): 11.4 mg/kg/day
- TD50 (rat, strain Charles River CD (Sprague-Dawley), females, i.p., site: any site (literature study), lesion: malignant tumor, dosed 26 weeks, study length 78 weeks): 11.5 mg/kg/day
- TD50 (rat, strain Charles River CD (Sprague-Dawley), females, i.p., site: any site (literature study), lesion: several types, types named in the paper, dosed 26 weeks, study length 78 weeks): 12.5 mg/kg/day
- TD50 (rat, strain Charles River CD (Sprague-Dawley), females, i.p., site: lung, lesion: carcinoma, dosed 26 weeks, study length 78 weeks): 84.6 mg/kg/day
- TD50 (rat, strain Charles River CD (Sprague-Dawley), females, i.p., site: mammary gland, lesion: adenocarcinoma, dosed 26 weeks, study length 78 weeks): 24.9 mg/kg/day
- TD50 (rat, strain Charles River CD (Sprague-Dawley), females, i.p., site: peritoneum, lesion: sarcoma, dosed 26 weeks, study length 78 weeks): 79.2 mg/kg/day
- TD50 (rat, strain Charles River CD (Sprague-Dawley), males, i.p., site: any site (literature study), lesion: benign tumor, dosed 26 weeks, study length 78 weeks): 16.6 mg/kg/day
- TD50 (rat, strain Charles River CD (Sprague-Dawley), males, i.p., site: any site (literature study), lesion: several types, types named in the paper, dosed 26 weeks, study length 78 weeks): 7.95 mg/kg/day
- TD50 (rat, strain Charles River CD (Sprague-Dawley), males, i.p., site: mammary gland, lesion: fibroadenoma, dosed 26 weeks, study length 78 weeks): 255 mg/kg/day
- TD50 (rat, strain Charles River CD (Sprague-Dawley), males, i.p., site: peritoneum, lesion: sarcoma, dosed 26 weeks, study length 78 weeks): 30.9 mg/kg/day
- TD50 (rat, strain Charles River CD (Sprague-Dawley), males, i.p., site: skin, lesion: several types, types named in the paper, dosed 26 weeks, study length 78 weeks): 103 mg/kg/day

Compound: O=C(O)C1=NN(c2ccc(S(=O)(=O)O)cc2)C(=O)C1N=Nc1ccc(S(=O)(=O)O)cc1 (centres undefined)
- TD50 (mouse, strain Charles River CD1, females, in feed, site: all sites, lesion: malignant lymphoma, lymphocytic type, dosed 104 weeks, study length 104 weeks): 1430 mg/kg/day (inactive)
- carcinogen call (mouse, strain Charles River CD1, females, in feed, site: any site (literature study), lesion: benign tumor, dosed 104 weeks, study length 104 weeks): negative (inactive)
- TD50 (mouse, strain Charles River CD1, females, in feed, site: any site (literature study), lesion: malignant tumor, dosed 104 weeks, study length 104 weeks): 1560 mg/kg/day (inactive)
- carcinogen call (mouse, strain Charles River CD1, females, in feed, site: liver, lesion: hepatocellular adenocarcinoma, dosed 104 weeks, study length 104 weeks): negative (inactive)
- TD50 (mouse, strain Charles River CD1, females, in feed, site: liver, lesion: hepatocellular adenoma, dosed 104 weeks, study length 104 weeks): 200000 mg/kg/day (inactive)
- carcinogen call (mouse, strain Charles River CD1, females, in feed, site: lung, lesion: alveolar/bronchiolar adenocarcinoma, dosed 104 weeks, study length 104 weeks): negative (inactive)
- carcinogen call (mouse, strain Charles River CD1, females, in feed, site: lung, lesion: alveolar/bronchiolar adenoma, dosed 104 weeks, study length 104 weeks): negative (inactive)
- TD50 (mouse, strain Charles River CD1, males, in feed, site: all sites, lesion: malignant lymphoma, lymphocytic type, dosed 104 weeks, study length 104 weeks): 11800 mg/kg/day (inactive)
- TD50 (mouse, strain Charles River CD1, males, in feed, site: any site (literature study), lesion: benign tumor, dosed 104 weeks, study length 104 weeks): 388 mg/kg/day (inactive)
- TD50 (mouse, strain Charles River CD1, males, in feed, site: any site (literature study), lesion: malignant tumor, dosed 104 weeks, study length 104 weeks): 1810 mg/kg/day (inactive)
- TD50 (mouse, strain Charles River CD1, males, in feed, site: liver, lesion: hepatocellular adenocarcinoma, dosed 104 weeks, study length 104 weeks): 61100 mg/kg/day (inactive)
- TD50 (mouse, strain Charles River CD1, males, in feed, site: liver, lesion: hepatocellular adenoma, dosed 104 weeks, study length 104 weeks): 2150 mg/kg/day (inactive)
- carcinogen call (mouse, strain Charles River CD1, males, in feed, site: lung, lesion: alveolar/bronchiolar adenocarcinoma, dosed 104 weeks, study length 104 weeks): negative (inactive)
- TD50 (mouse, strain Charles River CD1, males, in feed, site: lung, lesion: alveolar/bronchiolar adenoma, dosed 104 weeks, study length 104 weeks): 42500 mg/kg/day (inactive)
- carcinogen call (rat, strain F344/DuCrj, females, in drinking water, site: any site (literature study), lesion: one or several types, types not named, dosed 104 weeks, study length 112 weeks): negative (inactive)
- carcinogen call (rat, strain F344/DuCrj, females, in drinking water, site: liver, lesion: neoplastic nodule, dosed 104 weeks, study length 112 weeks): negative (inactive)
- TD50 (rat, strain F344/DuCrj, females, in drinking water, site: uterus, lesion: endometrial stromal polyp, dosed 104 weeks, study length 112 weeks): 5780 mg/kg/day (inactive)
- TD50 (rat, strain F344/DuCrj, males, in drinking water, site: abdominal cavity, lesion: mesothelioma, dosed 104 weeks, study length 112 weeks): 2820 mg/kg/day (inactive)
- carcinogen call (rat, strain F344/DuCrj, males, in drinking water, site: any site (literature study), lesion: one or several types, types not named, dosed 104 weeks, study length 112 weeks): negative (inactive)
- carcinogen call (rat, strain F344/DuCrj, males, in drinking water, site: liver, lesion: hepatocellular carcinoma, dosed 104 weeks, study length 112 weeks): negative (inactive)
- carcinogen call (rat, strain F344/DuCrj, males, in drinking water, site: liver, lesion: neoplastic nodule, dosed 104 weeks, study length 112 weeks): negative (inactive)
- carcinogen call (rat, strain Not specified, females, in feed, site: any site (literature study), lesion: several types, types named in the paper, dosed 64 weeks, study length 64 weeks): negative (inactive)
- carcinogen call (rat, strain Not specified, females, in feed, site: liver, lesion: one or several types, types not named, dosed 64 weeks, study length 64 weeks): negative (inactive)
- carcinogen call (rat, strain Not specified, males, in feed, site: any site (literature study), lesion: several types, types named in the paper, dosed 64 weeks, study length 64 weeks): negative (inactive)
- carcinogen call (rat, strain Not specified, males, in feed, site: liver, lesion: one or several types, types not named, dosed 64 weeks, study length 64 weeks): negative (inactive)
- carcinogen call (rat, strain Osborne-Mendel, both sexes, in feed, site: any site (literature study), lesion: malignant tumor, dosed 104 weeks, study length 104 weeks): negative (inactive)
- carcinogen call (rat, strain Osborne-Mendel, both sexes, in feed, site: any site (literature study), lesion: several types, types named in the paper, dosed 104 weeks, study length 104 weeks): negative (inactive)
- TD50 (rat, strain Osborne-Mendel, both sexes, in feed, site: liver, lesion: adenoma, dosed 104 weeks, study length 104 weeks): 231000 mg/kg/day (inactive)

Compound: N[C@@H](CCC(=O)NNc1ccc(CO)cc1)C(=O)O
- TD50 (mouse, strain Swiss albino, females, in drinking water, site: liver, lesion: angiosarcoma, dosed 121 weeks, study length 121 weeks): 2720 mg/kg/day
- TD50 (mouse, strain Swiss albino, females, in drinking water, site: lung, lesion: adenoma, dosed 121 weeks, study length 121 weeks): 3290 mg/kg/day
- carcinogen call (mouse, strain Swiss albino, females, in drinking water, site: lung, lesion: several types, types named in the paper, dosed 121 weeks, study length 121 weeks): negative (inactive)
- TD50 (mouse, strain Swiss albino, males, in drinking water, site: liver, lesion: angiosarcoma, dosed 120 weeks, study length 120 weeks): 2040 mg/kg/day
- TD50 (mouse, strain Swiss albino, males, in drinking water, site: liver, lesion: hepatoma, dosed 120 weeks, study length 120 weeks): 3310 mg/kg/day (inactive)
- carcinogen call (mouse, strain Swiss albino, males, in drinking water, site: lung, lesion: several types, types named in the paper, dosed 120 weeks, study length 120 weeks): negative (inactive)

Compound: FC(F)Cl
- carcinogen call (mouse, strain Swiss, females, inhaled, site: any site (literature study), lesion: malignant tumor, dosed 78 weeks, study length 104 weeks): negative (inactive)
- carcinogen call (mouse, strain Swiss, females, inhaled, site: any site (literature study), lesion: several types, types named in the paper, dosed 78 weeks, study length 104 weeks): negative (inactive)
- carcinogen call (mouse, strain Swiss, females, inhaled, site: lung, lesion: adenoma, dosed 78 weeks, study length 104 weeks): negative (inactive)
- TD50 (mouse, strain Swiss, males, inhaled, site: any site (literature study), lesion: malignant tumor, dosed 78 weeks, study length 104 weeks): 98300 mg/kg/day (inactive)
- carcinogen call (mouse, strain Swiss, males, inhaled, site: any site (literature study), lesion: several types, types named in the paper, dosed 78 weeks, study length 104 weeks): negative (inactive)
- carcinogen call (mouse, strain Swiss, males, inhaled, site: lung, lesion: adenoma, dosed 78 weeks, study length 104 weeks): negative (inactive)
- TD50 (rat, strain Sprague-Dawley, females, inhaled, site: any site (literature study), lesion: malignant tumor, dosed 104 weeks, study length 104 weeks): 20100 mg/kg/day (inactive)
- TD50 (rat, strain Sprague-Dawley, females, inhaled, site: any site (literature study), lesion: several types, types named in the paper, dosed 104 weeks, study length 104 weeks): 26000 mg/kg/day (inactive)
- carcinogen call (rat, strain Sprague-Dawley, females, inhaled, site: liver, lesion: angiosarcoma, dosed 104 weeks, study length 104 weeks): negative (inactive)
- carcinogen call (rat, strain Sprague-Dawley, males, inhaled, site: any site (literature study), lesion: malignant tumor, dosed 104 weeks, study length 104 weeks): negative (inactive)
- TD50 (rat, strain Sprague-Dawley, males, inhaled, site: any site (literature study), lesion: several types, types named in the paper, dosed 104 weeks, study length 104 weeks): 6540 mg/kg/day (inactive)
- carcinogen call (rat, strain Sprague-Dawley, males, inhaled, site: liver, lesion: angiosarcoma, dosed 104 weeks, study length 104 weeks): negative (inactive)
